# Active and inactive are the calls of the source.
# Experiments:
# [1] = molecular target: Peroxisome proliferator-activated receptor gamma/Nuclear receptor coactivator 1 (Homo sapiens, UniProt P37231); test: (§1) TR-FRET dose response biochemical High Throughput Screening assay for agonists of the steroid receptor coactivator 1 (SRC-1) recruitment by the peroxisome proliferator-activated receptor gamma (PPAR gamma): non-selective agonists. [Related pubchem assays (depositor defined):AID1300, AID1808, AID504735, AID631]; type: protein assay
# Peroxisome proliferator-activated receptor gamma/Nuclear receptor coactivator 1, sequence (P37231 whole entry): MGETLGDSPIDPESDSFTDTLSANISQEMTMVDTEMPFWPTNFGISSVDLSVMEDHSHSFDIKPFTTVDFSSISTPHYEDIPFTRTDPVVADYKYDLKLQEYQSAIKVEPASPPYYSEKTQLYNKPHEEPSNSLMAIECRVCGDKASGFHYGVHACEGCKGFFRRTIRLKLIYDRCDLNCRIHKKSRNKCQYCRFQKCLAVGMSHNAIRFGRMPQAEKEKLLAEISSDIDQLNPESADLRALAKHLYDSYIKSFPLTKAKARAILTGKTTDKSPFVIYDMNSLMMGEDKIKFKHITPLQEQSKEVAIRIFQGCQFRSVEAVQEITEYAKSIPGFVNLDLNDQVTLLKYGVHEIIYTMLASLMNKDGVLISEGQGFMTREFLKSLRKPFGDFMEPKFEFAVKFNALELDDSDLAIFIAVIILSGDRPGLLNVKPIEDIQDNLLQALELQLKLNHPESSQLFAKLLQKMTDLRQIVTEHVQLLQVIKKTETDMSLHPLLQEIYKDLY
# Peroxisome proliferator-activated receptor gamma/Nuclear receptor coactivator 1, sequence (Q15788 whole entry, further chain): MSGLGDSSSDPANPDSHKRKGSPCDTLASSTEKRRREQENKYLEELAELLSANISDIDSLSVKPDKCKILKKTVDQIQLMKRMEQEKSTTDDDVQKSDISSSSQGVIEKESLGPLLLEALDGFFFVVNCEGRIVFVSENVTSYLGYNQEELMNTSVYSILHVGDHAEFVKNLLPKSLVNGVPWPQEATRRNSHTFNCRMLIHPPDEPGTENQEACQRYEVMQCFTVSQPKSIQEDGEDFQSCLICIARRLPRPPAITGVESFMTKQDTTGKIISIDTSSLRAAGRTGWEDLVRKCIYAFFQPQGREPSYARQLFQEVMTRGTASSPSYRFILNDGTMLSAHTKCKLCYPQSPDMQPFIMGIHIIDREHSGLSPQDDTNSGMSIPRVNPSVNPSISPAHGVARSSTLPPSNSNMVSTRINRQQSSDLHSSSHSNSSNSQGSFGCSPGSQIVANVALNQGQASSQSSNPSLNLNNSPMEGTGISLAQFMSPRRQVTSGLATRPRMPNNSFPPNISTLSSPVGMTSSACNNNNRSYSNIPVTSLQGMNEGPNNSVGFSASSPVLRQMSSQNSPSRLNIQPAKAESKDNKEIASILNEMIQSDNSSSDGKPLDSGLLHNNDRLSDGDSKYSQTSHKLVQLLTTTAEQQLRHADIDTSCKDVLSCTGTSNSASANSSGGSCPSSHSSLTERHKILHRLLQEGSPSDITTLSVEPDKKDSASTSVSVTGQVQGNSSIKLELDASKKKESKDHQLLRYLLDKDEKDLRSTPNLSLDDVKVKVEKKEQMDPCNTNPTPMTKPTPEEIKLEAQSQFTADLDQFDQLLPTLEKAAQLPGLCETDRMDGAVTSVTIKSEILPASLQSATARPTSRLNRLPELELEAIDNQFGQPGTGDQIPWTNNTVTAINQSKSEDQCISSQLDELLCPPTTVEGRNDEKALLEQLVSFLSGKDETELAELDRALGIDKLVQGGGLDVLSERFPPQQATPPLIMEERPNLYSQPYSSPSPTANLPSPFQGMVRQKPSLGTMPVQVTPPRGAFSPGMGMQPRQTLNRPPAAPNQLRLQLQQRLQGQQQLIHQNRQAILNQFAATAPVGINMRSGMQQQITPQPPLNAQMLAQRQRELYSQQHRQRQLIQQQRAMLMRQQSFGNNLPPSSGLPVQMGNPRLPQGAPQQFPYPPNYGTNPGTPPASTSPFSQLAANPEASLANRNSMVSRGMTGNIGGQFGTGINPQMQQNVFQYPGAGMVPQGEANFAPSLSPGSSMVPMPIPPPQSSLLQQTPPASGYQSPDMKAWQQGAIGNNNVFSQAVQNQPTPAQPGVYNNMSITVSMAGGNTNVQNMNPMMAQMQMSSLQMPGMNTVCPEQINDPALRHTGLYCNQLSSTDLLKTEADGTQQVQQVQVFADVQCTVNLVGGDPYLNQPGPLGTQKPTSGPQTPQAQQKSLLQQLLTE
# [2] = molecular target: Peroxisome proliferator-activated receptor gamma/Nuclear receptor coactivator 3 (Homo sapiens, UniProt P37231); test: as §1, with “3 (SRC-3)” for “1 (SRC-1)”, “assays: 1301 (Confirmation screen.), 1048 (Primary screen.)]” for “assays (depositor defined):AID1300, AID1808, AID504735, AID631]”; type: functional
# Peroxisome proliferator-activated receptor gamma/Nuclear receptor coactivator 3, sequence (P37231 whole entry): as the sequence (P37231 whole entry) above
# Peroxisome proliferator-activated receptor gamma/Nuclear receptor coactivator 3, sequence (Q9Y6Q9 whole entry, further chain): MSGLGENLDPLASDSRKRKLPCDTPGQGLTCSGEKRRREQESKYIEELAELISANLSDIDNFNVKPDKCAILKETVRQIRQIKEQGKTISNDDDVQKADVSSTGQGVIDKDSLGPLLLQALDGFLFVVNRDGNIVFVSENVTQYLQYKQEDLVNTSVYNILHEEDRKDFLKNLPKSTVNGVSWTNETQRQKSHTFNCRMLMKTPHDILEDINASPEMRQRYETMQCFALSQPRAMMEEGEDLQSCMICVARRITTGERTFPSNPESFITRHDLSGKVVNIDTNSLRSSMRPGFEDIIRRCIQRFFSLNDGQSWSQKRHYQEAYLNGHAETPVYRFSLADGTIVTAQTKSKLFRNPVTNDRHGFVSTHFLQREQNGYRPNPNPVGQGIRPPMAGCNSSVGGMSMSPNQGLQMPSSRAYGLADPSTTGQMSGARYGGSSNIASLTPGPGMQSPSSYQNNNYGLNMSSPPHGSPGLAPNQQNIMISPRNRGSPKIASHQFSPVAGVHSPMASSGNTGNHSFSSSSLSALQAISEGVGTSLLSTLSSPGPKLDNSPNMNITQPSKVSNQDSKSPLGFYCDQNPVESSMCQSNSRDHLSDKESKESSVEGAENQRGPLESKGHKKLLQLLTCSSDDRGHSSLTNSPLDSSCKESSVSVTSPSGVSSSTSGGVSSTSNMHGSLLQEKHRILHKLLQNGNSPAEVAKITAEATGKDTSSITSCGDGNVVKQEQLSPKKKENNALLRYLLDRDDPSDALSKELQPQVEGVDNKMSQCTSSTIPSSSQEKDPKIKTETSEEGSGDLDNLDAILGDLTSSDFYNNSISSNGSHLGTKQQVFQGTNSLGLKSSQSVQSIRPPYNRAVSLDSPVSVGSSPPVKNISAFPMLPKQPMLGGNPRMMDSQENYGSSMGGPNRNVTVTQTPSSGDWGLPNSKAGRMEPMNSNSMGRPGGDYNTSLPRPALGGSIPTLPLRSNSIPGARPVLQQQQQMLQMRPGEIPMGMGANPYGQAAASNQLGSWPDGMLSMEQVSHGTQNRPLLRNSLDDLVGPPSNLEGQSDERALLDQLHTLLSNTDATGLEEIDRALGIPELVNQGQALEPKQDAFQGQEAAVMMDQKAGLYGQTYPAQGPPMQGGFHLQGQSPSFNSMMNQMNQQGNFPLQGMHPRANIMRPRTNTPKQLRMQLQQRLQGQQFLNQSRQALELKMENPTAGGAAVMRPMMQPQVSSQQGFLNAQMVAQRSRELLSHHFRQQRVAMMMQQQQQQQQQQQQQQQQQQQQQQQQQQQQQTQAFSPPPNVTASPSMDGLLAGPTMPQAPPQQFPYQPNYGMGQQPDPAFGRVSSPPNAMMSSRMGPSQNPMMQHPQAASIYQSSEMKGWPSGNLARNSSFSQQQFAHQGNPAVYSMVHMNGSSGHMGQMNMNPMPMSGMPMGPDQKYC
# [3] = molecular target: Peroxisome proliferator-activated receptor gamma/Nuclear receptor coactivator 2 (Homo sapiens, UniProt P37231); test: TR-FRET dose response biochemical High Throughput Screening assay for agonists of the steroid receptor coactivator 2 (SRC-2) recruitment by the peroxisome proliferator-activated receptor gamma (PPAR gamma): non-selective agonists. [Related pubchem assays: 1297, 1032 ]; type: functional
# [4] = molecular target: T1, Apoptotic protease-activating factor 1 (Homo sapiens, UniProt O14727); type: functional
# T1 sequence (O14727 whole entry): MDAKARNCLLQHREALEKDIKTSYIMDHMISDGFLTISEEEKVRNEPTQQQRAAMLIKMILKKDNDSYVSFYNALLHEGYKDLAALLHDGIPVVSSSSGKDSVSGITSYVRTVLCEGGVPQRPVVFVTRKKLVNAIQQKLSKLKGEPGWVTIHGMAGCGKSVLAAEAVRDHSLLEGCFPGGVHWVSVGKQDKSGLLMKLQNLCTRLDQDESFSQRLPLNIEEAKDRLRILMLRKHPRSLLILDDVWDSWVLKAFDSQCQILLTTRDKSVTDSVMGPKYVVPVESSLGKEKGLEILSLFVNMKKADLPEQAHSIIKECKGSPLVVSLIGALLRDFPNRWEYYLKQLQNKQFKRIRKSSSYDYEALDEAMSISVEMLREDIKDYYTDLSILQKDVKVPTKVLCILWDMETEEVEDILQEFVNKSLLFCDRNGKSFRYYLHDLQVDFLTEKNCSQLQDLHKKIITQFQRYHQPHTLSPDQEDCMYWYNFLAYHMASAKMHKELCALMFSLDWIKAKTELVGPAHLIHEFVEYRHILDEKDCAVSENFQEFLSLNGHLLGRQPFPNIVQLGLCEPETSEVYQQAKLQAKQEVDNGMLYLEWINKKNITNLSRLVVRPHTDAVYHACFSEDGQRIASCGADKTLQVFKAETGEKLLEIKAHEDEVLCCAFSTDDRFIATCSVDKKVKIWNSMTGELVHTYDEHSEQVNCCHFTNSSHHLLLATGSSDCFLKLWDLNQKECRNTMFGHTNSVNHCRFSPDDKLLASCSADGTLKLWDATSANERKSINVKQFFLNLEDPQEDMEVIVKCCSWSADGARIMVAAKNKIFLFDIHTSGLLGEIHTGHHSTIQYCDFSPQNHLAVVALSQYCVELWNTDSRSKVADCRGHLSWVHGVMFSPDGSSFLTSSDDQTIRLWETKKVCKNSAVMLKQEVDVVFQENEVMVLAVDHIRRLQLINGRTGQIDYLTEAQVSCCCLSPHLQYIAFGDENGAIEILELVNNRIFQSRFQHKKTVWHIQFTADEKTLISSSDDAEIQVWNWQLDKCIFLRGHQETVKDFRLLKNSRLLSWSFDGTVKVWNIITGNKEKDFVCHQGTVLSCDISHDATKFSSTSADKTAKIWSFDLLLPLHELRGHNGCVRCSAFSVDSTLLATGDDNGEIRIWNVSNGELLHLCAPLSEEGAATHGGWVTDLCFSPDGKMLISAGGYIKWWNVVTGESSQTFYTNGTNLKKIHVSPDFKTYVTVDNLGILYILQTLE
# [5] = Shn3 3'UTR reporter inhibitors, dose response, cell-based, Clone20 osteoblasts, firefly luciferase, cherry-picked (AID 624132); type: functional;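 also: firefly luciferase luminescence from reporter carrying the Shn3 3'UTR in osteoblasts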
# [6] = control 3'UTR Renilla luciferase suppression, dose response, counter-screen for Shn3 inhibitor project, cell-based, Clone20-Shn3RL, cherry-picked (AID 624133); type: functional
# Cytochrome P450 3A4 = Cytochrome P450 3A4 (Homo sapiens, UniProt P08684);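 also: CYP3A4 tested as one member of a cytochrome P450 panel screen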
# Cytochrome P450 3A4, sequence (P08684 whole entry): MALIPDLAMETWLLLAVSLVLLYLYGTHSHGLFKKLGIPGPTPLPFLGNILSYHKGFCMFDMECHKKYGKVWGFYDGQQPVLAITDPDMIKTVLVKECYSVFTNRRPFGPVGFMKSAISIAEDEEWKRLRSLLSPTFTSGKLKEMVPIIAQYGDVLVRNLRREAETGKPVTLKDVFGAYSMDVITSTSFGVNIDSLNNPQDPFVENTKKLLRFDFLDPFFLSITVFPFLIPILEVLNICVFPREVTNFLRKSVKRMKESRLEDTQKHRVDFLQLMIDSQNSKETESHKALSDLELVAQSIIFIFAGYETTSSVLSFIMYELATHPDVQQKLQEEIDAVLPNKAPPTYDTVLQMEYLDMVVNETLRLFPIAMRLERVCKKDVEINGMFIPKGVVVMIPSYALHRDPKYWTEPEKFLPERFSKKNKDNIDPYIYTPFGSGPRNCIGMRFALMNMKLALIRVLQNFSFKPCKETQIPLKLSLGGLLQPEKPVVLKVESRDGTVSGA
# [7] = molecular target: Voltage-dependent T-type calcium channel subunit alpha-1H (Homo sapiens, UniProt O95180); type: functional;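 also: channel activity triggered by adding a high calcium stimulation buffer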
# Escherichia coli [8] = test: microbe, parasite or virus in culture
# Escherichia coli [9] = test: microbe, parasite or virus in culture; remark: listed apart in the source
# Coagulation factor XII = molecular target: T2, Coagulation factor XII (Homo sapiens, UniProt P00748); test: FXIIa inhibitor potency, concentration-response, biochemical (AID 716); type: functional
# T2 sequence (P00748 whole entry): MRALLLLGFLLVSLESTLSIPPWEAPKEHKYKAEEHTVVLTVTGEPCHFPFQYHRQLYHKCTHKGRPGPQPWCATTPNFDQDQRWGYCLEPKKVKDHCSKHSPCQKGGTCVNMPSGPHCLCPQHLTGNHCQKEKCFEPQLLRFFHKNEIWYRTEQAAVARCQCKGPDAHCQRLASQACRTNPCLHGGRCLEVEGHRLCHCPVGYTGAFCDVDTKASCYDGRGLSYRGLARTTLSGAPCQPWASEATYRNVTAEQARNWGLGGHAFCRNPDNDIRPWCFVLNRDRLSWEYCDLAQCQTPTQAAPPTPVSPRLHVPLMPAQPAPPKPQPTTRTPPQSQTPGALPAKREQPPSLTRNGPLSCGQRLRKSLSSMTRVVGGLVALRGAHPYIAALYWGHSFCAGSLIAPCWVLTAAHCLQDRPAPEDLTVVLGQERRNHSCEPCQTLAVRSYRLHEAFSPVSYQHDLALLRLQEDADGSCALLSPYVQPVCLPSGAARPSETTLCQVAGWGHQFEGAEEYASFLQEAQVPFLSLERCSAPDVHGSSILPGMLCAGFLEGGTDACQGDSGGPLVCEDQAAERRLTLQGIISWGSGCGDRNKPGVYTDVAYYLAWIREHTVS
# [10] = molecular target: Glyceraldehyde-3-phosphate dehydrogenase (Homo sapiens, UniProt P04406)
# [11] = molecular target: Alkaline phosphatase, placental type (Homo sapiens, UniProt P05187); test: PLAP enzyme inhibitors, confirmation, biochemical, luminescence (AID 1512); type: functional
# Alkaline phosphatase, placental type, sequence (P05187 whole entry): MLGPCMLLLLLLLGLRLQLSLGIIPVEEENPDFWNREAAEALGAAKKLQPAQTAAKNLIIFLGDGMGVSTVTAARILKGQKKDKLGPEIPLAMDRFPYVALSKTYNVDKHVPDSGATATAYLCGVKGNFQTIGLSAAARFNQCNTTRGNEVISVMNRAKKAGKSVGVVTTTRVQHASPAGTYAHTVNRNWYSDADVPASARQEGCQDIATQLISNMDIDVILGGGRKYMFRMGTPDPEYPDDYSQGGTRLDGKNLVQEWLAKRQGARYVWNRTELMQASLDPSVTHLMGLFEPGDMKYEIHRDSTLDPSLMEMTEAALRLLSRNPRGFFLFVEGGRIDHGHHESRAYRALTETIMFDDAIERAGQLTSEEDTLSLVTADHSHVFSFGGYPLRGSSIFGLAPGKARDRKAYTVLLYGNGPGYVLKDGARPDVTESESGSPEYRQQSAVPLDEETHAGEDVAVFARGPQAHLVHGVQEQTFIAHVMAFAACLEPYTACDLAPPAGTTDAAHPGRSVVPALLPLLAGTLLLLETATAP
# [12] = molecular target: T3, Alkaline phosphatase, tissue-nonspecific isozyme (Homo sapiens, UniProt P05186); test: human TNAP enzyme inhibitors, SAR follow-up, biochemical, luminescent, dose response (AID 1056)
# T3 sequence (P05186 whole entry): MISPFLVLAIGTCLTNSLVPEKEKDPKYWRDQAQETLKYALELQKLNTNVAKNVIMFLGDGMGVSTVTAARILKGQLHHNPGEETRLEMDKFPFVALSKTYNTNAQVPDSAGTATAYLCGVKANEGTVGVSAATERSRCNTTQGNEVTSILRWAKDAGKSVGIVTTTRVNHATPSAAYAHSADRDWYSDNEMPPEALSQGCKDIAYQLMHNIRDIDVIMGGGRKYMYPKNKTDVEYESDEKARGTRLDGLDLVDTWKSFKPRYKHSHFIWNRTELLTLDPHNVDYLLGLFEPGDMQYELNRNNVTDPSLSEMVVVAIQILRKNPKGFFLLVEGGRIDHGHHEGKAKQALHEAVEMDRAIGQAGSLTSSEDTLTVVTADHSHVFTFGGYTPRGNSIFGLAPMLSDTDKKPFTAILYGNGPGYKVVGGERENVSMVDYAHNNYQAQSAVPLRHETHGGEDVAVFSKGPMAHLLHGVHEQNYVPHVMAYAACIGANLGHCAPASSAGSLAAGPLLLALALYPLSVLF
# Cytochrome P450 2D6 = Cytochrome P450 2D6 (Homo sapiens, UniProt P10635);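 also: CYP2D6 member of a cytochrome P450 panel assay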
# Bcl-2-related protein A1 = molecular target: T4, Bcl-2-related protein A1 (Mus musculus, UniProt Q07440); type: functional;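 also: confirmatory dose–response counterscreen on Bfl-1, used to check hits from a UBC13 polyubiquitin inhibitor campaign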
# T4 sequence (Q07440 whole entry): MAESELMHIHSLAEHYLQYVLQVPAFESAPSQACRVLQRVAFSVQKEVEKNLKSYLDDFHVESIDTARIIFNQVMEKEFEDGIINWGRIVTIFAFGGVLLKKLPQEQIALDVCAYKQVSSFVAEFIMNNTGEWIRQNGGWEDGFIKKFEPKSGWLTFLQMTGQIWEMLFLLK
# [13] = molecular target: T5, Ubiquitin-conjugating enzyme E2 N (Homo sapiens, UniProt P61088); type: functional
# T5 sequence (P61088 whole entry): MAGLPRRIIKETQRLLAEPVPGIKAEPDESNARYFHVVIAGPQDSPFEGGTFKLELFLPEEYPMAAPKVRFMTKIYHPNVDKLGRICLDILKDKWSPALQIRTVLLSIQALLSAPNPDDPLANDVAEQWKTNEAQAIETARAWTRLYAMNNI
# [14] = molecular target: T5, Ubiquitin-conjugating enzyme E2 N; type: functional; remark: listed apart in the source
# [15] = NIH-3T3 fibroblast cytotoxicity, dose response, cytotoxicity control, cell-based, fluorescence, Alamar Blue, secondary assay (AID 2327); type: functional;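 also: NIH-3T3 mouse fibroblasts cultured with fluconazole at 8 µg/mL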
# [16] = C. albicans growth with fluconazole, confirmation, fluorescence, retest (AID 2467); type: functional, cell-based
# [17] = inhibitors of intracellular T. cruzi replication, confirmation, NIH3T3 host cells, beta-gal luminescence (AID 2044); type: functional, cell-based;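 also: intracellular parasites grown in NIH/3T3 mouse fibroblasts as host cells; luminescent beta-galactosidase reporter signal from transgenic T. cruzi replicating inside host cells; inhibitors lower the luminescence signal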
# [18] = growth suppression of PTEN-null colon cells, dose response, cell-based, HCT116 PTEN knockout (AID 1047); type: functional;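 also: HCT116 colon tumor cells with PTEN knocked out; cells exposed to compound for 60 hours before readout; potency for loss of cell viability measured by luminescence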
# [19] = cytotoxicity toward NIH3T3 fibroblasts, dose response, counter-screen, cell-based, ATP luminescence, mouse fibroblasts (AID 2010); type: functional;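 also: cells exposed to compound for about 90 hours before reading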
# [20] = growth suppression of beta-catenin-knockout colon cells, dose response, cell-based, HCT116, human colon tumor (AID 1045); type: functional;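 also: HCT116 colon tumor cells with beta catenin knocked out; cells exposed to compound for 60 hours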
# Beta-galactosidase = Beta-galactosidase (Escherichia coli, UniProt Q8VNN2); test: beta-galactosidase enzyme inhibitors and activators, dose response, artefact control for CCR6 antagonist project, biochemical, E. coli enzyme, set 3 (AID 504712); type: functional
# HEK293 [21] = test: NOD1 signaling inhibitors, primary screen, cell-based, luminescence, uHTS (AID 1578); type: functional; conditions: Homo sapiens
# HEK293 [22] = test: cells; type: functional, cell-based; conditions: Homo sapiens
# HEK293 [23] = test: cells; type: functional, cell-based; conditions: Homo sapiens; remark: listed apart in the source
# [24] = molecular target: Nucleotide-binding oligomerization domain-containing protein 2 (Homo sapiens, UniProt Q9HC29); test: NOD2 signaling inhibitors, cell-based, luminescence, uHTS, HEK293 (AID 1566); type: functional
# HEK293 [25] = test: NOD2 signaling inhibitors in MDP-stimulated cells, cell-based, uHTS, luminescence (AID 2001); type: functional; conditions: Homo sapiens
# HEK293 [26] = test: cells; type: functional, cell-based; conditions: Homo sapiens; remark: listed apart in the source
smiles,measurement,setting,value
CS(=O)(=O)c1nc(-c2ccc(Br)cc2)cc(-c2ccccc2)c1C#N,EC50,[1],7.5 µM (active)
same,EC50,[2],> 79.4 µM (not active)
same,EC50,[3],8.09 µM (active)
same,IC50,[4],2.07 µM (active)
same,AC50,[5],4.72 µM (active)
same,AC50,[6],6.77 µM (active)
CCCCOC(=S)NC(=O)c1sc2ccccc2c1Cl,AC50,Cytochrome P450 3A4,inconclusive
CC1CCN(S(=O)(=O)c2cccc(C(=O)NCc3cccs3)c2)CC1,EC50,[7],2.96 µM (active)
same,AC50,Escherichia coli [8],40.9 µM (active)
same,AC50,Escherichia coli [9],106 µM (active)
CCOC(=O)c1sc2ncnc(N3CCN(C(=O)OCC)CC3)c2c1C,IC50,Coagulation factor XII,> 50 µM (inactive)
C=CCn1c(COc2ccc(CC)cc2)nnc1SCC(=O)N(C)C1CCS(=O)(=O)C1 (stereo not given),IC50,Coagulation factor XII,> 50 µM (inactive)
OC[C@@H]1O[C@@H](n2cnc3cncnc32)[C@@H](O)[C@H]1O,AC50,Cytochrome P450 3A4,inconclusive
COc1cc2oc(=O)c(Br)c(C)c2c(OC)c1OC,EC50,[1],13 µM (inactive)
same,EC50,[2],> 79.4 µM (not active)
same,EC50,[3],10 µM (not active)
CCN(CC)S(=O)(=O)c1ccc(C(=O)NCC(c2cccs2)N2CCOCC2)cc1 (stereo not given),IC50,Coagulation factor XII,> 50 µM (inactive)
Nc1nc(Cc2cccc(Br)c2)n(-c2ccccc2)n1,IC50,[10],> 100 µM (not active)
same,IC50,[11],> 100 µM (inactive)
same,IC50,[12],> 100 µM (inactive)
C=CCNS(=O)(=O)c1cccc2cc(C(=O)O)c(O)cc12,AC50,Cytochrome P450 2D6,22.4 µM (inconclusive)
same,AC50,Cytochrome P450 3A4,inconclusive
COc1ccc(-c2nnc3oc(O)c(CCO)c(C)c2-3)cc1,IC50,[10],> 100 µM (not active)
same,IC50,[11],> 100 µM (inactive)
same,IC50,[12],> 100 µM (inactive)
Cc1cc(C)c(C#N)c(SCC(=O)c2ccc(O)c(O)c2)n1,IC50,[11],1.56 µM (active)
same,IC50,[12],6.71 µM (active)
CCCN1CCN(C(=O)C2CCN(c3ncnc4c3nc3n4CCCCC3)CC2)CC1,IC50,Bcl-2-related protein A1,> 20 µM (inactive)
same,IC50,[13],14.2 µM (active)
same,IC50,[14],6.38 µM (active)
N=C(N)N/N=C/c1ccc(OCc2ccc(Cl)cc2)cc1,EC50,[15],> 150 µM (inactive)
same,EC50,[16],> 38 µM (not active)
same,EC50,[17],1.93 µM (active)
same,EC50,[18],3.74 µM (active)
same,EC50,[19],> 60 µM (inconclusive)
same,EC50,[20],3.25 µM (active)
same,IC50,Bcl-2-related protein A1,> 20 µM (inactive)
same,IC50,[13],13 µM (active)
same,IC50,Beta-galactosidase,> 66.6 µM (inactive)
same,IC50,[14],12.4 µM (active)
CC(/C=C/c1ccccc1)=N/NC(=O)c1cccc(Br)c1,EC50,HEK293 [21],3.65 µM (active)
same,IC50,HEK293 [22],> 20 µM (inactive)
same,IC50,HEK293 [23],> 20 µM (inactive)
same,EC50,[24],> 20 µM (inactive)
same,IC50,HEK293 [25],2.7 µM (active)
same,IC50,HEK293 [26],> 20 µM (inactive)
same,IC50,Beta-galactosidase,> 66.6 µM (inactive)
Cc1ccccc1-c1ccc(/C=N/c2c(C)n(C)n(-c3ccccc3)c2=O)o1,EC50,[1],> 79.4 µM (inactive)
same,EC50,[2],> 79.4 µM (not active)
same,EC50,[3],47.6 µM (not active)

# — ChEMBL document CHEMBL1201862, “PubChem BioAssay data set” (2004)
